Experimental data published in patent publication US9351983B2, “Use of glycerophosphoinositols for the treatment of septic shock” (CONSIGLIO NAZIONALE DELLE RICERCHE, priority 2012, dated 2016).

How the values were obtained:
Interleukin-6 (IL-6) = assay: In vitro model of human inflammation: ELISA of IL-6 in supernatants; type: cell-based; settings: 300 μM; full inflammation (4 h and 14 h); one donor
Procedure: (§1) FIG. 16—Glycerophosphoinositol inhibits the release of cytokines. Human monocytes were purified from one donor and treated according to the in vitro model of human inflammation, previously described, in absence (blue line) or in presence (red line) of 300 μM glycerophosphoinositol. In detail, glycerophosphoinositol was added to cultured cells 20 minutes before LPS, IL-10 and TGF-β, that is, again after each wash. The growth medium was collected at time 4 h, 14 h, 24 h, 48 h; growth medium from freshly isolated monocytes was considered as control at time 0 h. The levels of cytokines Interleukin 1β (IL-1β), Tumor necrosis factor α (TNFα) and Interleukin-6 (IL-6) in the supernatants were measured by enzyme-linked immunosorbent assay (ELISA kit, R&D System) according to manufacturer's protocol. An increased release of these cytokines was observed during the full inflammation (time 4 h and 14 h) as expected. […]
(§2) Extracellular levels of IL-1β, TNFα and IL-6 were measured by enzyme-linked immunosorbent assay (ELISA) from R&D System. […] Then the recovered supernatants were loaded onto plates according to manufacturer's protocol and the concentration of the protein was assessed spectrophotometrically.

[1] = test system: cyclooxygenase 2 (COX-2) gene expression; assay: In vitro model of human inflammation: real-time PCR of COX-2; type: cell-based; settings: 300 μM; 4 h, 14 h, 24 h, 48 h; effect mainly at 4 h and 14 h; one donor, preliminary
Procedure: (§3) FIG. 15—Glycerophosphoinositol modulates the kinetic transcriptional profile of genes involved in the regulation of inflammatory response. Human monocytes were purified from one donor and treated according to the in vitro model of human inflammation, previously described, in absence (blue line) or in presence (red line) of 300 μM glycerophosphoinositol. In detail glycerophosphoinositol was added to cells in culture 20 minutes before LPS, IL-10 and TGF-β, that is, again after each wash. Samples were collected at time 4 h, 14 h, 24 h, 48 h; freshly isolated monocytes have been considered as control at time 0 h. Total RNA was extracted from cells by RNeasy kit (Qiagen) and reverse-transcribed to cDNA (QuantiTect Reverse Transcription kit, Qiagen). […] Each sample was measured in triplicate and data were analyzed with Pfaffl methods for comparing relative expression data. The measurement of mRNA expression was expressed as fold-increase over control (time 0 h). […]
(§4) Total RNA was extracted with RNeasy kit (Qiagen) according to the manufacturer's instructions. Both integrity and quality of total RNA were checked by agarose gel electrophoresis and the concentration of each RNA sample was assessed spectrophotometrically. Total RNAs were reverse-transcribed to cDNA (QuantiTect Reverse Transcription kit, Qiagen) with oligo-dT and random primers, according to manufacturer's protocol. […]

[2] = test system: interleukin 1β (IL-1β) gene expression; assay: In vitro model of human inflammation: real-time PCR of IL-1β; type: cell-based; settings: 300 μM; 4 h, 14 h, 24 h, 48 h; effect mainly at 4 h and 14 h; one donor, preliminary
Procedure: as §3, §4

[3] = test system: Tumor necrosis factor α (TNFα); assay: In vitro model of human inflammation: ELISA of TNFα in supernatants; type: cell-based; settings: 300 μM; full inflammation (4 h and 14 h); one donor
Procedure: as §1, §2

[4] = test system: interleukin-1 receptor II (IL-1RII) gene expression; assay: In vitro model of human inflammation: real-time PCR of IL-1RII; type: cell-based; settings: 300 μM; 4 h, 14 h, 24 h, 48 h; one donor, preliminary
Procedure: as §3, §4

IL-1β = assay: ELISA of IL-1β in medium of LPS-stimulated monocytes; type: cell-based, human; settings: 300 μM
Procedure: FIG. 5—The inhibitory effects of GroPIns are also evident at the protein expression level. Purified monocytes (4×10^3 cells/sample) were pre-incubated for 20 min at 37° C. in the absence and presence of 300 μM GroPIns, and then for a further 5 h and 24 h without or with 0.1 μg/ml LPS from E. coli. At the end of this incubation, the levels of TNFα, IL-1β and TxB-2 in the medium were assessed by ELISA. In monocytes alone, the protein concentrations were under the assay detection limits at both the times. The data are representative of three independent experiments performed with cells from different donors. Exposure of monocytes to LPS induced a time-dependent increase in the […] levels of all of the cytokines analysed.
Cellular levels of TNFα, IL-1β and TxB-2 were quantified by enzyme-linked immunosorbent assay (ELISA). Conditioned medium from monocytes was sedimented by centrifugation at 300×g at room temperature for 10 min to eliminate cellular debris. Then, the supernatant was recovered and the concentrations of TNFα, IL-1β and TxB-2 were assessed by ELISA, as specified by the manufacturers (Amersham Pharmacia Biotech (NJ, USA).

Interleukin 1β (IL-1β) = assay: In vitro model of human inflammation: ELISA of IL-1β in supernatants; type: cell-based; settings: 300 μM; full inflammation (4 h and 14 h); one donor
Procedure: as §1, §2

[5] = test system: Interleukin-1 receptor α (IL-1Rα) gene expression; assay: In vitro model of human inflammation: real-time PCR of IL-1Rα; type: cell-based; settings: 300 μM; 4 h, 14 h, 24 h, 48 h; one donor, preliminary
Procedure: as §3, §4

O=P(O)(OCC(O)CO)OC1C(O)C(O)C(O)C(O)C1O (stereo not drawn) [GroPIns, glycerophosphoinositol]
amount of IL-6 in the supernatants (Interleukin-6 (IL-6)): significantly reduced the amount of these cytokines in the supernatants
COX-2 mRNA expression [1]: hampered the expression
IL-1β mRNA expression [2]: hampered the expression
amount of TNFα in the supernatants [3]: significantly reduced the amount of these cytokines in the supernatants
IL-1RII mRNA expression [4]: favoured the expression
level of IL-1β in the medium (IL-1β; 0.1 μg/ml LPS for 5 h): very small effects
level of IL-1β in the medium (IL-1β; 0.1 μg/ml LPS for 24 h): significantly reduced
amount of IL-1β in the supernatants (Interleukin 1β (IL-1β)): significantly reduced the amount of these cytokines in the supernatants
IL-1Rα mRNA expression [5]: favoured the expression
